# Assay results: US8247211B2, “Glycopeptide antibiotics” (American Cyanamid Company, priority 2001, dated 2012)
# Assays:
# Test in all cases: In vitro antibacterial evaluation: minimum inhibitory concentration (MIC), broth dilution method
# Type in all cases: cell-based
# Streptococcus sp. = details: 18 hours at 35° C.
# In short: (§1)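 NCCLS M7-A2 broth dilution with Mueller-Hinton II, testing 64-0.06 μg/mL antibiotic against 5×10^5 CFU/mL inocula. Test strains include recent methicillin-, penicillin- or vancomycin-resistant clinical isolates. MIC is the lowest concentration preventing growth.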
# Escherichia coli = details: 18 hours at 35° C.
# In short: as §1
# Enterococcus sp. = details: 18 hours at 35° C.
# In short: as §1
# Staphylococcus sp. = system: Staphylococcus sp.
# In short: as §1
# [1] = Streptococcus agalactiae (GC 4564)
# [2] = Streptococcus pneumoniae (ATCC 6301)
# [3] = Streptococcus pneumoniae (GC 1894)
# [4] = Streptococcus pneumoniae (GC 4565)
# [5] = Streptococcus pyogenes (GC 4563)
# [6] = broth dilution, inoculum 5×10^5 CFU/mL
# [7] = Enterococcus faecalis (ATCC 29212)
# [8] = Enterococcus faecalis (GC 2242)
# [9] = Enterococcus faecalis (GC 2691)
# [10] = Enterococcus faecalis (GC 3059)
# [11] = Enterococcus faecalis (GC 4552)
# [12] = Enterococcus faecalis (GC 4553)
# [13] = Enterococcus faecalis (GC 4554)
# [14] = Enterococcus faecalis (GC 6189)
smiles,measurement,setting,value
CC(c1ccccc1)C1NC(=O)CNC(=O)C(CO)NC(=O)C(C(O)C2CNC(=N)N2C2OC(CO)C(O)C(O)C2O)NC(=O)C(C(O)C2CNC(=N)N2)NC(=O)C(Cc2ccc(OC3OC(CO)C(OC4OC(CO)C(OCC=Cc5ccc(N(C)C)cc5)C(O)C4O)C(O)C3O)cc2)NC1=O (stereo not shown) [Example 243a],MIC Streptococcus agalactiae (GC 4564),Streptococcus sp.; [1],16 µg/mL
same,MIC Streptococcus pneumoniae (ATCC 6301),Streptococcus sp.; [2],16 µg/mL
same,MIC Streptococcus pneumoniae (GC 1894),Streptococcus sp.; [3],1 µg/mL
same,MIC Streptococcus pneumoniae (GC 4565),Streptococcus sp.; [4],2 µg/mL
same,MIC Streptococcus pyogenes (GC 4563),Streptococcus sp.; [5],8 µg/mL
same,MIC Streptococcus agalactiae (GC 4564),Streptococcus sp.; [6],16 µg/mL
same,MIC Streptococcus pneumoniae (ATCC 6301),Streptococcus sp.; [6],16 µg/mL
same,MIC Streptococcus pneumoniae (GC 1894),Streptococcus sp.; [6],1 µg/mL
same,MIC Streptococcus pneumoniae (GC 4565),Streptococcus sp.; [6],2 µg/mL
same,MIC Streptococcus pyogenes (GC 4563),Streptococcus sp.; [6],8 µg/mL
same,MIC Escherichia coli (ATCC 25922),Escherichia coli,>64 µg/mL
same,MIC Escherichia coli (GC 4559),Escherichia coli,>64 µg/mL
same,MIC Escherichia coli (GC 4560),Escherichia coli,32 µg/mL
same,MIC Enterococcus avium (GC 4558),Enterococcus sp.; Enterococcus avium (GC 4558),16 µg/mL
same,MIC Enterococcus faecalis (ATCC 29212),Enterococcus sp.; [7],32 µg/mL
same,MIC Enterococcus faecalis (GC 2242),Enterococcus sp.; [8],32 µg/mL
same,MIC Enterococcus faecalis (GC 2691),Enterococcus sp.; [9],32 µg/mL
same,MIC Enterococcus faecalis (GC 3059),Enterococcus sp.; [10],32 µg/mL
same,MIC Enterococcus faecalis (GC 4552),Enterococcus sp.; [11],32 µg/mL
same,MIC Enterococcus faecalis (GC 4553),Enterococcus sp.; [12],32 µg/mL
same,MIC Enterococcus faecalis (GC 4554),Enterococcus sp.; [13],32 µg/mL
same,MIC Enterococcus faecalis (GC 6189),Enterococcus sp.; [14],32 µg/mL
same,MIC Enterococcus faecium (GC 2243),Enterococcus sp.; Enterococcus faecium (GC 2243),32 µg/mL
same,MIC Enterococcus faecium (GC 4556),Enterococcus sp.; Enterococcus faecium (GC 4556),32 µg/mL
same,MIC Enterococcus faecium (GC 4557),Enterococcus sp.; Enterococcus faecium (GC 4557),16 µg/mL
same,MIC Enterococcus faecalis (GC 2242),Enterococcus sp.; [6],32 µg/mL
same,MIC Enterococcus faecalis (GC 2691),Enterococcus sp.; [6],32 µg/mL
same,MIC Enterococcus faecalis (GC 3059),Enterococcus sp.; [6],32 µg/mL
same,MIC Coagulase Negative Staphylococcus (GC 4547),"Staphylococcus sp.; Coagulase Negative Staphylococcus (GC 4547), 18 hours at 35° C.",32 µg/mL
same,MIC Coagulase Negative Staphylococcus (GC 4548),"Staphylococcus sp.; Coagulase Negative Staphylococcus (GC 4548), 18 hours at 35° C.",32 µg/mL
same,MIC Coagulase Negative Staphylococcus (GC 4549),"Staphylococcus sp.; Coagulase Negative Staphylococcus (GC 4549), 18 hours at 35° C.",16 µg/mL
same,MIC Coagulase Negative Staphylococcus (GC 4551),"Staphylococcus sp.; Coagulase Negative Staphylococcus (GC 4551), 18 hours at 35° C.",32 µg/mL
same,MIC Coagulase Negative Staphylococcus (GC 6257),"Staphylococcus sp.; Coagulase Negative Staphylococcus (GC 6257), 18 hours at 35° C.",16 µg/mL
same,MIC Staphylococcus aureus (ATCC 29213),"Staphylococcus sp.; Staphylococcus aureus (ATCC 29213), 18 hours at 35° C.",32 µg/mL
same,MIC Staphylococcus aureus (GC 1131),"Staphylococcus sp.; Staphylococcus aureus (GC 1131), 18 hours at 35° C.",32 µg/mL
same,MIC Staphylococcus aureus (GC 3051),"Staphylococcus sp.; Staphylococcus aureus (GC 3051), 18 hours at 35° C.",32 µg/mL
same,MIC Staphylococcus aureus (GC 3053),"Staphylococcus sp.; Staphylococcus aureus (GC 3053), 18 hours at 35° C.",32 µg/mL
same,MIC Staphylococcus aureus (GC 4541),"Staphylococcus sp.; Staphylococcus aureus (GC 4541), 18 hours at 35° C.",32 µg/mL
same,MIC Staphylococcus aureus (GC 4542),"Staphylococcus sp.; Staphylococcus aureus (GC 4542), 18 hours at 35° C.",32 µg/mL
same,MIC Staphylococcus aureus (GC 4544),"Staphylococcus sp.; Staphylococcus aureus (GC 4544), 18 hours at 35° C.",32 µg/mL
same,MIC Staphylococcus aureus (GC 4545),"Staphylococcus sp.; Staphylococcus aureus (GC 4545), 18 hours at 35° C.",32 µg/mL
same,MIC Staphylococcus aureus-SMITH (GC 4543),"Staphylococcus sp.; Staphylococcus aureus-SMITH (GC 4543), 18 hours at 35° C.",32 µg/mL
same,MIC Staphylococcus haemolyticus (GC 4546),"Staphylococcus sp.; Staphylococcus haemolyticus (GC 4546), 18 hours at 35° C.",32 µg/mL
"CC(c1ccccc1)C1NC(=O)CNC(=O)C(CO)NC(=O)C(C(O)C2CNC(=N)N2C2OC(CO)C(O)C(O)C2O)NC(=O)C(C(O)C2CNC(=N)N2)NC(=O)C(Cc2ccc(OC3OC(CO)C(OC4OC5COC6(CC7CCC6(C)C7(C)C)OC5C(O)C4O)C(O)C3O)cc2)NC1=O (stereo not drawn) [Example 215, Cyclo[glycyl-β-methylphenylalanyl-O-[4-O-[4,6-O-(1,7,7-trimethylbicyclo[2.2.1]hept-2-ylidene)hexopyranosyl]hexopyranosyl]tyrosyl-3-(2-iminoimidazolidin-4-yl)seryl-3-(3-hexopyranosyl-2-iminoimidazolidin-4-yl)serylseryl]]",MIC Streptococcus agalactiae (GC 4564),Streptococcus sp.; [1],<0.12 µg/mL
same,MIC Streptococcus pneumoniae (ATCC 6301),Streptococcus sp.; [2],<0.12 µg/mL
same,MIC Streptococcus pneumoniae (GC 1894),Streptococcus sp.; [3],<0.12 µg/mL
same,MIC Streptococcus pneumoniae (GC 4565),Streptococcus sp.; [4],<0.12 µg/mL
same,MIC Streptococcus pyogenes (GC 4563),Streptococcus sp.; [5],<0.12 µg/mL
same,MIC Streptococcus agalactiae (GC 4564),Streptococcus sp.; [6],<0.12 µg/mL
same,MIC Streptococcus pneumoniae (ATCC 6301),Streptococcus sp.; [6],<0.12 µg/mL
same,MIC Streptococcus pneumoniae (GC 1894),Streptococcus sp.; [6],<0.12 µg/mL
same,MIC Streptococcus pneumoniae (GC 4565),Streptococcus sp.; [6],<0.12 µg/mL
same,MIC Streptococcus pyogenes (GC 4563),Streptococcus sp.; [6],<0.12 µg/mL
same,MIC Escherichia coli (ATCC 25922),Escherichia coli,32 µg/mL
same,MIC Escherichia coli (GC 4559),Escherichia coli,32 µg/mL
same,MIC Escherichia coli (GC 4560),Escherichia coli,1 µg/mL
same,MIC Enterococcus avium (GC 4558),Enterococcus sp.; Enterococcus avium (GC 4558),0.5 µg/mL
same,MIC Enterococcus faecalis (ATCC 29212),Enterococcus sp.; [7],0.5 µg/mL
same,MIC Enterococcus faecalis (GC 2242),Enterococcus sp.; [8],1 µg/mL
same,MIC Enterococcus faecalis (GC 2691),Enterococcus sp.; [9],1 µg/mL
same,MIC Enterococcus faecalis (GC 3059),Enterococcus sp.; [10],1 µg/mL
same,MIC Enterococcus faecalis (GC 4552),Enterococcus sp.; [11],1 µg/mL
same,MIC Enterococcus faecalis (GC 4553),Enterococcus sp.; [12],0.5 µg/mL
same,MIC Enterococcus faecalis (GC 4554),Enterococcus sp.; [13],1 µg/mL
same,MIC Enterococcus faecalis (GC 6189),Enterococcus sp.; [14],1 µg/mL
same,MIC Enterococcus faecium (GC 2243),Enterococcus sp.; Enterococcus faecium (GC 2243),0.5 µg/mL
same,MIC Enterococcus faecium (GC 4556),Enterococcus sp.; Enterococcus faecium (GC 4556),1 µg/mL
same,MIC Enterococcus faecium (GC 4557),Enterococcus sp.; Enterococcus faecium (GC 4557),0.5 µg/mL
same,MIC Enterococcus avium (GC 4558),Enterococcus sp.; [6],0.5 µg/mL
same,MIC Enterococcus faecalis (ATCC 29212),Enterococcus sp.; [6],0.5 µg/mL
same,MIC Enterococcus faecalis (GC 2242),Enterococcus sp.; [6],1 µg/mL
same,MIC Enterococcus faecalis (GC 2691),Enterococcus sp.; [6],1 µg/mL
same,MIC Enterococcus faecalis (GC 3059),Enterococcus sp.; [6],1 µg/mL
same,MIC Enterococcus faecalis (GC 4552),Enterococcus sp.; [6],1 µg/mL
same,MIC Enterococcus faecalis (GC 4553),Enterococcus sp.; [6],0.5 µg/mL
same,MIC Enterococcus faecalis (GC 4554),Enterococcus sp.; [6],1 µg/mL
same,MIC Enterococcus faecalis (GC 6189),Enterococcus sp.; [6],1 µg/mL
same,MIC Enterococcus faecium (GC 2243),Enterococcus sp.; [6],0.5 µg/mL
same,MIC Enterococcus faecium (GC 4556),Enterococcus sp.; [6],1 µg/mL
same,MIC Enterococcus faecium (GC 4557),Enterococcus sp.; [6],0.5 µg/mL
same,MIC Staphylococcus aureus (ATCC 29213),Staphylococcus sp.; strain ATCC 29213,0.5 µg/mL
same,MIC Staphylococcus aureus (GC 1131),Staphylococcus sp.; strain GC 1131,0.5 µg/mL
same,MIC Staphylococcus aureus (GC 3051),Staphylococcus sp.; strain GC 3051,0.5 µg/mL
same,MIC Staphylococcus aureus (GC 3053),Staphylococcus sp.; strain GC 3053,1 µg/mL
same,MIC Staphylococcus aureus (GC 4541),Staphylococcus sp.; strain GC 4541,0.5 µg/mL
same,MIC Staphylococcus aureus (GC 4542),Staphylococcus sp.; strain GC 4542,0.5 µg/mL
same,MIC Staphylococcus aureus-SMITH (GC 4543),Staphylococcus sp.; strain GC 4543,<0.12 µg/mL
same,MIC Staphylococcus aureus (GC 4544),Staphylococcus sp.; strain GC 4544,0.5 µg/mL
same,MIC Staphylococcus aureus (GC 4545),Staphylococcus sp.; strain GC 4545,1 µg/mL
same,MIC Staphylococcus haemolyticus (GC 4546),Staphylococcus sp.; strain GC 4546,0.5 µg/mL
same,MIC Coagulase Negative Staphylococcus (GC 4547),Staphylococcus sp.; strain GC 4547,0.5 µg/mL
same,MIC Coagulase Negative Staphylococcus (GC 4548),Staphylococcus sp.; strain GC 4548,0.5 µg/mL
same,MIC Coagulase Negative Staphylococcus (GC 4549),Staphylococcus sp.; strain GC 4549,<0.12 µg/mL
same,MIC Coagulase Negative Staphylococcus (GC 4551),Staphylococcus sp.; strain GC 4551,0.5 µg/mL
